Reference: PubChem BioAssay AID1919001 (Molecular Pharmacology Branch, DTP, NCI, 2023)

Tested on: 699152-130-R-J1-PDC complex spheroid growth
Test: Anticancer human tumor 699152-130-R-J1-PDC patient-derived pancreatic carcinoma cell line growth inhibition [AhR]
Settings: for IC50: curve of first compound; for viability, T/C: stronger effect = lower value
Method in brief: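 Complex tumor spheroids co-cultured with HUVEC and human MSC stroma; AhR antagonists tested in combination with standard-of-care and investigational agents. Top concentration at or near clinical Cmax (else 10 microM), half-log dilutions; growth expressed as percent test/control.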

[1] = second compound 0.1 µM, first compound 0.0316 µM
[2] = second compound 0.1 µM, first compound 0.1 µM
[3] = second compound 0.1 µM, first compound 0.316 µM
[4] = second compound 0.1 µM, first compound 1 µM
[5] = second compound 0.316 µM, first compound 0.0316 µM
[6] = second compound 0.316 µM, first compound 0.1 µM
[7] = second compound 0.316 µM, first compound 0.316 µM
[8] = second compound 0.316 µM, first compound 1 µM
[9] = second compound 1 µM, first compound 0.0316 µM
[10] = second compound 1 µM, first compound 0.1 µM
[11] = second compound 1 µM, first compound 0.316 µM
[12] = second compound 1 µM, first compound 1 µM
[13] = second compound 3.16 µM, first compound 0.0316 µM
[14] = second compound 3.16 µM, first compound 0.1 µM
[15] = second compound 3.16 µM, first compound 0.316 µM
[16] = second compound 3.16 µM, first compound 1 µM
[17] = second compound 10 µM, first compound 0.0316 µM
[18] = second compound 10 µM, first compound 0.1 µM
[19] = second compound 10 µM, first compound 0.316 µM
[20] = second compound 10 µM, first compound 1 µM
[21] = second compound 0.1 µM, first compound 3.16 µM
[22] = second compound 0.1 µM, first compound 10 µM
[23] = second compound 0.316 µM, first compound 3.16 µM
[24] = second compound 0.316 µM, first compound 10 µM
[25] = second compound 1 µM, first compound 3.16 µM
[26] = second compound 1 µM, first compound 10 µM
[27] = second compound 3.16 µM, first compound 3.16 µM
[28] = second compound 3.16 µM, first compound 10 µM
[29] = second compound 10 µM, first compound 3.16 µM
[30] = second compound 10 µM, first compound 10 µM
[31] = second compound 0.1 µM, first compound 0.00949 µM
[32] = second compound 0.1 µM, first compound 0.03 µM
[33] = second compound 0.1 µM, first compound 0.0949 µM
[34] = second compound 0.1 µM, first compound 0.3 µM
[35] = second compound 0.316 µM, first compound 0.00949 µM
[36] = second compound 0.316 µM, first compound 0.03 µM
[37] = second compound 0.316 µM, first compound 0.0949 µM
[38] = second compound 0.316 µM, first compound 0.3 µM
[39] = second compound 1 µM, first compound 0.00949 µM
[40] = second compound 1 µM, first compound 0.03 µM
[41] = second compound 1 µM, first compound 0.0949 µM
[42] = second compound 1 µM, first compound 0.3 µM
[43] = second compound 3.16 µM, first compound 0.00949 µM
[44] = second compound 3.16 µM, first compound 0.03 µM
[45] = second compound 3.16 µM, first compound 0.0949 µM
[46] = second compound 3.16 µM, first compound 0.3 µM
[47] = second compound 10 µM, first compound 0.00949 µM
[48] = second compound 10 µM, first compound 0.03 µM
[49] = second compound 10 µM, first compound 0.0949 µM
[50] = second compound 10 µM, first compound 0.3 µM
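Also: compound exposure lasted 7 days after spheroids had grown for 3 days.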

CC1COCCN1c1cc(-c2ccnn2C)c2ccnc(-c3ccn[nH]3)c2n1 (stereo not given) + Cc1cncc(-c2nc(NCCc3c[nH]c4ccccc34)c3ncn(C(C)C)c3n2)c1
IC50 (second compound 0.1 µM): > 1 µM
IC50 (second compound 0.316 µM): > 1 µM
IC50 (second compound 1 µM): > 1 µM
IC50 (second compound 3.16 µM): 0.489 µM
IC50 (second compound 10 µM): < 0.00316 µM
viability, T/C (second compound 0.1 µM, first compound 0.00316 µM): 109%
viability, T/C (second compound 0.1 µM, first compound 0.01 µM): 94.4%
viability, T/C [1]: 107%
viability, T/C [2]: 96.5%
viability, T/C [3]: 75.7%
viability, T/C [4]: 64.4%
viability, T/C (second compound 0.316 µM, first compound 0.00316 µM): 119%
viability, T/C (second compound 0.316 µM, first compound 0.01 µM): 122%
viability, T/C [5]: 103%
viability, T/C [6]: 88.3%
viability, T/C [7]: 81.6%
viability, T/C [8]: 62%
viability, T/C (second compound 1 µM, first compound 0.00316 µM): 127%
viability, T/C (second compound 1 µM, first compound 0.01 µM): 128%
viability, T/C [9]: 135%
viability, T/C [10]: 105%
viability, T/C [11]: 79.9%
viability, T/C [12]: 64.9%
viability, T/C (second compound 3.16 µM, first compound 0.00316 µM): 77.6%
viability, T/C (second compound 3.16 µM, first compound 0.01 µM): 64.1%
viability, T/C [13]: 67.2%
viability, T/C [14]: 57.4%
viability, T/C [15]: 52.5%
viability, T/C [16]: 46%
viability, T/C (second compound 10 µM, first compound 0.00316 µM): 5.06%
viability, T/C (second compound 10 µM, first compound 0.01 µM): 5.37%
viability, T/C [17]: 5.23%
viability, T/C [18]: 5.76%
viability, T/C [19]: 7.12%
viability, T/C [20]: 9.33%

CC1COCCN1c1cc(C2(S(C)(=N)=O)CC2)nc(-c2ccnc3[nH]ccc23)n1 (stereo not given) + Cc1cncc(-c2nc(NCCc3c[nH]c4ccccc34)c3ncn(C(C)C)c3n2)c1
IC50 (second compound 0.1 µM): > 10 µM
IC50 (second compound 0.316 µM): > 10 µM
IC50 (second compound 1 µM): > 10 µM
IC50 (second compound 3.16 µM): > 10 µM
IC50 (second compound 10 µM): < 0.0316 µM
viability, T/C [1]: 98.9%
viability, T/C [2]: 103%
viability, T/C [3]: 113%
viability, T/C [4]: 95.9%
viability, T/C [21]: 85.3%
viability, T/C [22]: 74.8%
viability, T/C [5]: 96.5%
viability, T/C [6]: 106%
viability, T/C [7]: 114%
viability, T/C [8]: 119%
viability, T/C [23]: 95.1%
viability, T/C [24]: 77.8%
viability, T/C [9]: 117%
viability, T/C [10]: 122%
viability, T/C [11]: 126%
viability, T/C [12]: 107%
viability, T/C [25]: 123%
viability, T/C [26]: 81.3%
viability, T/C [13]: 90.6%
viability, T/C [14]: 113%
viability, T/C [15]: 90.9%
viability, T/C [16]: 101%
viability, T/C [27]: 92.3%
viability, T/C [28]: 69.9%
viability, T/C [17]: 25.2%
viability, T/C [18]: 27.3%
viability, T/C [19]: 29.9%
viability, T/C [20]: 24.7%
viability, T/C [29]: 25.9%
viability, T/C [30]: 20.2%

COc1ccc([C@@H](O)c2cc(-c3ncnc4cc(N5CCOCC5)ccc34)c(F)cc2Cl)nn1 + Cc1cncc(-c2nc(NCCc3c[nH]c4ccccc34)c3ncn(C(C)C)c3n2)c1
IC50 (second compound 0.1 µM): 6.29 µM
IC50 (second compound 0.316 µM): 5.2 µM
IC50 (second compound 1 µM): 7.45 µM
IC50 (second compound 3.16 µM): 4.64 µM
IC50 (second compound 10 µM): < 0.0316 µM
viability, T/C [1]: 100%
viability, T/C [2]: 104%
viability, T/C [3]: 89.4%
viability, T/C [4]: 78.9%
viability, T/C [21]: 65.4%
viability, T/C [22]: 40.1%
viability, T/C [5]: 95%
viability, T/C [6]: 102%
viability, T/C [7]: 89.2%
viability, T/C [8]: 84.4%
viability, T/C [23]: 59.7%
viability, T/C [24]: 36.8%
viability, T/C [9]: 104%
viability, T/C [10]: 103%
viability, T/C [11]: 109%
viability, T/C [12]: 91%
viability, T/C [25]: 76.2%
viability, T/C [26]: 41.2%
viability, T/C [13]: 55.6%
viability, T/C [14]: 66%
viability, T/C [15]: 60.6%
viability, T/C [16]: 59.8%
viability, T/C [27]: 54.3%
viability, T/C [28]: 40.2%
viability, T/C [17]: 4.98%
viability, T/C [18]: 5.41%
viability, T/C [19]: 4.5%
viability, T/C [20]: 6.28%
viability, T/C [29]: 6.8%
viability, T/C [30]: 9.11%

Nc1ncn(C2CC(O)C(CO)S2)c(=O)n1 (stereo not given) + Cc1cncc(-c2nc(NCCc3c[nH]c4ccccc34)c3ncn(C(C)C)c3n2)c1
IC50 (second compound 0.1 µM): > 0.3 µM
IC50 (second compound 0.316 µM): > 0.3 µM
IC50 (second compound 1 µM): > 0.3 µM
IC50 (second compound 3.16 µM): > 0.3 µM
IC50 (second compound 10 µM): < 0.000949 µM
viability, T/C (second compound 0.1 µM, first compound 0.000949 µM): 105%
viability, T/C (second compound 0.1 µM, first compound 0.003 µM): 93.8%
viability, T/C [31]: 99.9%
viability, T/C [32]: 99.5%
viability, T/C [33]: 90.8%
viability, T/C [34]: 91.4%
viability, T/C (second compound 0.316 µM, first compound 0.000949 µM): 112%
viability, T/C (second compound 0.316 µM, first compound 0.003 µM): 95.9%
viability, T/C [35]: 97%
viability, T/C [36]: 103%
viability, T/C [37]: 101%
viability, T/C [38]: 107%
viability, T/C (second compound 1 µM, first compound 0.000949 µM): 126%
viability, T/C (second compound 1 µM, first compound 0.003 µM): 110%
viability, T/C [39]: 106%
viability, T/C [40]: 110%
viability, T/C [41]: 113%
viability, T/C [42]: 111%
viability, T/C (second compound 3.16 µM, first compound 0.000949 µM): 91.6%
viability, T/C (second compound 3.16 µM, first compound 0.003 µM): 88.8%
viability, T/C [43]: 95.1%
viability, T/C [44]: 94.6%
viability, T/C [45]: 107%
viability, T/C [46]: 104%
viability, T/C (second compound 10 µM, first compound 0.000949 µM): 23.9%
viability, T/C (second compound 10 µM, first compound 0.003 µM): 21%
viability, T/C [47]: 22.8%
viability, T/C [48]: 22.5%
viability, T/C [49]: 19.6%
viability, T/C [50]: 20.4%

O=C(C=Cn1cnc(-c2cc(C(F)(F)F)cc(C(F)(F)F)c2)n1)NNc1cnccn1 + Cc1cncc(-c2nc(NCCc3c[nH]c4ccccc34)c3ncn(C(C)C)c3n2)c1
IC50 (second compound 0.1 µM): > 3 µM
IC50 (second compound 0.316 µM): > 3 µM
IC50 (second compound 1 µM): > 3 µM
IC50 (second compound 3.16 µM): > 3 µM
IC50 (second compound 10 µM): < 0.00949 µM
viability, T/C [31]: 97.5%
viability, T/C [32]: 97.4%
viability, T/C [33]: 86.4%
viability, T/C [34]: 81.4%
viability, T/C (second compound 0.1 µM, first compound 0.949 µM): 69.4%
viability, T/C (second compound 0.1 µM, first compound 3 µM): 67.8%
viability, T/C [35]: 83.2%
viability, T/C [36]: 92%
viability, T/C [37]: 89.2%
viability, T/C [38]: 76.3%
viability, T/C (second compound 0.316 µM, first compound 0.949 µM): 76.8%
viability, T/C (second compound 0.316 µM, first compound 3 µM): 74.2%
viability, T/C [39]: 102%
viability, T/C [40]: 111%
viability, T/C [41]: 92.9%
viability, T/C [42]: 87.1%
viability, T/C (second compound 1 µM, first compound 0.949 µM): 79.7%
viability, T/C (second compound 1 µM, first compound 3 µM): 72.2%
viability, T/C [43]: 118%
viability, T/C [44]: 113%
viability, T/C [45]: 93.9%
viability, T/C [46]: 97.2%
viability, T/C (second compound 3.16 µM, first compound 0.949 µM): 76.2%
viability, T/C (second compound 3.16 µM, first compound 3 µM): 70.5%
viability, T/C [47]: 20.1%
viability, T/C [48]: 22.6%
viability, T/C [49]: 25.2%
viability, T/C [50]: 26.4%
viability, T/C (second compound 10 µM, first compound 0.949 µM): 35%
viability, T/C (second compound 10 µM, first compound 3 µM): 32.9%
